In brackets after ≈: the same amount, converted by molar mass. Structures can show the parent of a compound that is named as a salt. Where two headings read alike, the source gives them in different places.
How the values were obtained:
[1] = Partition coefficient measurements in PDMS membranes; assay type: physicochemical; details: intrinsic non-ionized partition coefficient, N = 5
Experimental: For each drug, five membranes were prepared. Each membrane was prepared with 10 parts base to 1 part curing agent and cured at 20° C. for at least 72 hours. Once cured, the membranes were sectioned using a template and razor blade. The dimensions of the perimeter and thickness were measured using a caliper to determine the volume of membrane. After determining membrane density, subsequent volume measurements were made using the density relationship. Stock solution was distributed to 5 sample vials with 1 membrane-free vial to serve as a control. The time zero point was measured from the blank vial and time points and 1 mL samples were taken at 12 and 24 hours. The collected samples were assayed in duplicate by HPLC. Bulk transport properties of PDMS were measured to evaluate PDMS fitness for the mimicking human oral absorption. The partition coefficient was calculated according to Equation 4. K=Partition coefficient Cmem*=Equilibrium concentration of drug in membrane Caq*=Equilibrium concentration of drug in the aqueous media

[2] = literature values (refs 6, 41); cited from earlier work
[3] = Rotating membrane diffusion cell experiments (permeation through PDMS membrane); details: for LAG TIME (PRED.): predicted from Crank's method (Equation 16); for LAG TIME (EXP.): time to steady state transport across the membrane, linear regression of concentration versus time
[4] = not told
[5] = assay type: physicochemical
Experimental: This experiment was conducted in a manner similar to the experiment described in “Partition Coefficient Measurements”, above. […] Four different mass % of curing agents (4.9%, 9.1%, 16%, and 25%) were examined at two different pH conditions (2.00 HCl 13 mM & 6.50 phosphate 50 mM). The Log DPDMS was measured as a function of pH at pH 2.00, 5.00, 6.45, and 12.00 using 13 mM HCl, 50 mM acetate, 50 mM phosphate, and 39 mM NaOH buffers, respectively, at RT (FIG. 5C).

[6] = physchem; details: pH 2, aqueous buffer, thermodynamic from solid
Experimental: Five 1.5 mL centrifuge tubes were labeled and prepared with 1 mL of the appropriate non-ionizing buffer (see Table 5). Solid drug in powder form was added to each individual vial and then vortexed. The addition of drug and vortex mixing was repeated until there was visible undissolved drug powder present. The centrifuge tubes were then put into a hot box where they remained at an aqueous temperature of 37° C. (set point 43° C.). The internal temperature was determined by measuring the temperature of a “blank” tube in the rack. Once the internal temperature reached 37° C., the tubes were held at 37° C. for 48 hours. The tubes were removed from the hot box and centrifuged at 17,000G for 3 hours. The tubes cooled below 37° C. during the centrifugation so the tubes were re-inserted into the hot box and allowed to reach 37° C. over the course of 1 hour. Supernatant was then extracted directly from the tube in the hot box without disturbing the pellet. The supernatant was appropriately diluted for HPLC analysis.
In each permeation experiment, the donor-phase-containing drug was at a non-ionizing pH if the drug was ionizable and the receiver phase was at a completely ionizing (>99%) pH. […] Progesterone solubility was determined twice, the second time as an analytical check.

[7] = Equilibrium partition coefficient of ibuprofen into VeroClear resin spheres; assay type: physicochemical; details: pH 2 in VeroClear, 10 mm diameter spheres
[8] = Mass increase of PDMS membranes after equilibrium partitioning with ibuprofen; assay type: physicochemical
Experimental: Ibuprofen was chosen as a model drug because of its high lipophilicity and the ability to measure the difference in mass of drug in the membrane before and after the partitioning experiment. There was no statistical difference in the positronium lifetimes, but there was a 1.76 mg±0.12 mg (n=7) mass increase in 25% by mass curing agent PDMS membranes, and a 2.90 mg±0.38 mg (n=6) mass increase in […] by mass curing agent PDMS membranes.

[9] = UTLAM diffusion cell dissolution/absorption experiment; assay type: in vitro ADME; details: 57 micron PDMS UTLAM, donor 50 mM phosphate pH 6.5, receiver pH 8.0, 37° C., 50 rpm, 162 mg dose
Experimental: According to the SEM freeze-fracture-determined thickness based on the terminal rotational speed and mass fraction of PDMS, the membranes tested in the following experiments were 57 microns thick. 130 mL of 50 mM phosphate buffer pH 6.5 was degas sed and used as the donor phase, while 100 mL of 50 mM phosphate buffer pH 8.0 was degas sed and used as the receiver phase. The rationale behind this is that PDMS has poor ability to transport ions (a […] pH-partition relationship) and the more ionized the drug is, the less driving force the drug will provide for reverse transport out of the receiver phase. […] Ultimately, this leads to a […] transport rate of ibuprofen returning to the donor compartment. […] It is understood that the measured absorption rate is […] due the additional partitioning kinetics introduced by the resin that forms the UTLAM device. […] Physiologically, it is understood that the bicarbonate buffer bulk pH and buffer capacity are lower in the duodenum and jejunum than that of the USP 2 dissolution test. […]
The PDMS UTLAM is floated in deionized water and in about two hours the PVA is dissolved enough to tease the PDMS UTLAM to the surface of the water. […] Equivalent stirring rates could be calculated for the USP 2 paddle using CFD measurements made in COMSOL. […]

[10] = average PDMS KD divided by 10^LogK for PDMS

Row | Structure (SMILES) | PDMS LOGK [1] | PARTITION INDEPENDENT DIFF. COEFF (K*D)/10^LOGK^PDMS [3, 10] | AVG. PDMS (K*D) [4] | LAG TIME (PRED.) [4] [min] | LAG TIME (PRED.) [3] [min] | LAG TIME (EXP.) [3] [min] | also measured
1 | CC(C(=O)O)c1cccc(C(=O)c2ccccc2)c1 (stereo not drawn) [KETOPROFEN, Ketoprofen] | 0.56 | 2.58 × 10^−8 CM^2 S^−1 | – | – | 482 | 232 | pKa [2]: 3.89; AVG. PDMS (K*D) ([3]; non-ionized drug, donor/receiver buffer I/III as printed, 37° C., 150 rpm): 9.46 × 10^−8 CM^2 S^−1
2 | Cn1c(=O)c2c(ncn2C)n(C)c1=O [CAFFEINE, Caffeine] | – | – | 6.02 × 10^−10 CM^2 S^−1 | 571 | – | – | PARTITION I[…]. COEFF (K*D)/10^LOGK^PDMS [3, 10]: 1.70 × 10^−8 CM^2 S^−1
3 | O=C(O)c1ccccc1 [BENZOIC ACID, Benzoic Acid] | 0.10 | – | – | – | 238 | 25 | –
4 | CC(=O)[C@H]1CC[C@H]2[C@@H]3CCC4=CC(=O)CC[C@]4(C)[C@H]3CC[C@]12C [PROGESTERONE, Progesterone] | 2.03 | 1.07 × 10^−7 CM^2 S^−1 | 1.14 × 10^−5 CM^2 S^−1 | 158 | – | – | solubility thermodynamic at 48 h ([6]; 13 mM hydrochloric acid buffer, NON-IONIZED SOLUBILITY (ANALY. COMP.), second determination as analytical check with different dilution, pH 2.00 13 mM hydrochloric acid buffer at 37° C.): 20.9 mg/mL (≈ 66.5 mM); solubility thermodynamic at 48 h ([6]; 13 mM hydrochloric acid buffer, NON-IONIZED SOLUBILITY, I = pH 2.00 13 mM hydrochloric acid buffer at 37° C.): 21.3 mg/mL (≈ 67.7 mM)

Further lines, with some results ahead:

Row | PDMS LOGK [1] | PARTITION INDEPENDENT DIFF. COEFF (K*D)/10^LOGK^PDMS [3, 10] | AVG. PDMS (K*D) [4] | LAG TIME (PRED.) [4] [min] | Structure (SMILES) | LAG TIME (PRED.) [3] [min] | LAG TIME (EXP.) [3] [min] | also measured
5 | 0.68 | – | – | – | COCCc1ccc(OCC(O)CNC(C)C)cc1 (stereo not drawn) [METOPROLOL TARTRATE, Metoprolol Tartrate] | – | – | –
6 | 1.79 | 2.99 × 10^−7 CM^2 S^−1 | 1.83 × 10^−5 CM^2 S^−1 | 158 | CC(C)Cc1ccc(C(C)C(=O)O)cc1 (stereo not drawn) [IBUPROFEN, Ibuprofen] | – | – | MEASURED PDMS LOGPU ± SE [5]: 1.81; PI EQ. 6 ([5]; calculated to fit equation 6 using data at pH 11.81 and fu~0): 0.008; MEASURED PDMS PU ± SE ([5]; intrinsic non-ionized partition coefficient, N = 15): 65; K (partition coefficient) in PDMS ([5]; pH 2): 65; MEASURED PDMS LOGPI ± SE ([5]; pH 11.81): −0.286; solubility thermodynamic at 48 h ([6]; NON-IONIZED SOLUBILITY): 60 mg/mL (≈ 291 mM); K (equilibrium partition coefficient) in VeroClear [7]: 86; mass increase of PDMS membrane after equilibrium partitioning ([8]; 3.2% by mass curing agent PDMS membranes, n=6): 2.90 mg; mass increase of PDMS membrane after equilibrium partitioning ([8]; 25% by mass curing agent PDMS membranes, n=7): 1.76 mg; absorption rate (net flux) [9]: within the same order of magnitude of ibuprofen absorption in human beings

From patent US20200232961A1, “CHARACTERIZATION AND APPLICATION OF POLYMERS FOR IN VIVO RELEVANT DRUG ABSORPTION CHARACTERIZATION IN VITRO” (priority 2017, published 2020)
